Data on 9 compounds can be found in patent US5567728A, “Receptor ligands” (priority 1991, dated 1996).

pIC50: −log10 of the molar value. Counter-ions that a name gives are not always drawn.

The target in assay [1] is T1, Human thyroid hormone receptor β1 (hThR β1) (Homo sapiens, UniProt P10828).
T1 construct: made in house; host or cells: insect cells, recombinant baculovirus
T1 sequence (P10828 1-461): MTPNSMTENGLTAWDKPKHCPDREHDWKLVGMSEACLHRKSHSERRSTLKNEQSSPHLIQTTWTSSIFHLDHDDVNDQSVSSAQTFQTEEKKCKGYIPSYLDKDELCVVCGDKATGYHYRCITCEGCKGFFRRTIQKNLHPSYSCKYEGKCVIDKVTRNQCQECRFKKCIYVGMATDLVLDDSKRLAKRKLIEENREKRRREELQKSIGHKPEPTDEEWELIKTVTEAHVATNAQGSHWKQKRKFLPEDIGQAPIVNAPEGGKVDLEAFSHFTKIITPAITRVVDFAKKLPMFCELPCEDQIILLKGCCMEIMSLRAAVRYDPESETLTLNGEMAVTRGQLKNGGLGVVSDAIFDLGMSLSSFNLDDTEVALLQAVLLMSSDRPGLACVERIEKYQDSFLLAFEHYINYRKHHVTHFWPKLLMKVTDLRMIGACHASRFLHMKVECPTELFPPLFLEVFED
The experiment in a line: Binding experiments: displacement of 125I-T-3 from hThR β1. The conditions noted are these: [hThRβ]=5.0×10^-11 M; [125I-T3]=2.0×10^-10 M; pH 7,5; incubated over night (16-20 hours); not above +4° C. The procedure: Human thyroid hormone receptor β1 (hThR β1) was expressed in insect cells using a recombinant baculovirus (Barkhem T., et al. The Journal of Steroid Biochemistry and Molecular Biology: Vol 38, No 6 (1991) p 667).
Solutions of hThR β1 and of ^125 I-T-3 were made in E400 (K2 HPO4 =20 mM, KCl=400 mM, MgCl2 =l mM, EDTA=0,5 mM, monothioglycerol=6 mM, glycerol 8,7% (v/v), histones (type 11AS) 10 μg/ml pH=7,5). Histones and Monothioglycerol were purchased from Sigma (St. Louis, Mo., USA), the other compounds in E400 were from Merck (Darmstadt, BRD). […] Stock solutions of the compound (011) (20 mM) was made in 5% EtOH/1 mM NaOH.
For convenience the incubations were performed over night (16-20 hours).
The incubation was stopped by the loading of 180 μl incubation mixture on a Quik-Sep Sephadex G-25 column (#9041-35-4 ISOLAB, Akron, Ohio, USA). The peak of protein-bound 125 I-T-3 was eluted with 1 ml E400 and collected in a test tube (passage of free T-3 through column is delayed). The eluted radioactivity was measured in a gamma-counter.
All incubations and dilutions were made in polypropylene tubes. Great care was taken to avoid exposure of hThR β1 to temperatures above +4° C.
(DeLean, A., et al, Am. J. Physiol. 235: E97-E102. (1978)).
The calculations were performed in KaleidaGraph™ 2.0.2 (Adelbeck Software) on a Macintosh IIcx computer.
Experiments conducted with [hThRβ]=5.0×10^-11 M and with [^125 I-T3 ]=2.0×10^-10 M

Assay [2] concerns T-3 receptor. Kind of assay: biological assay, such as the method of Westerfield et al. (T-3 receptor antagonism). The conditions noted are these: "can be shown" by a biological assay such as Westerfield et al.; no data given.
The subject of assay [3] is isolated intestine of the guinea-pig. Conditions: cited from earlier work.
The test system of assay [4] is coronary vessels of the heart of the rabbit. The conditions noted are these: cited from earlier work.
Assay [5] deals with rat growth hormone (rGH) mRNA levels in cultured rat pituitary cells. Conditions: dose dependent; cited from earlier work.

The compound `Cc1oc2ccccc2c1Cc1cc(I)c(OCC(=O)O)c(I)c1` [(015), 2-methyl-3-(3,5-diiodo-4-carboxymethoxybenzyl)benzofuran] had a pIC50 in assay [1] of 5.10. Moreover, the T-3 receptor antagonism entry in assay [2] is reported as “T-3 receptor antagonists”.
On to `Cc1oc2ccccc2c1C(=O)c1cc(I)c(O)c(I)c1` [(011), 2-methyl-3-(3,5-diiodo-4-hydroxy-benzoyl)benzofuran], for which, in assay [1], the pIC50 was 5.60. Besides, in assay [2], the T-3 receptor antagonism entry was “T-3 receptor antagonists”. Further, the spasmolytic activity result in assay [3] is “spasmolytic activity”. In addition, the “dilatory effects on coronary vessels” value in assay [4] is listed as “some dilatory effects on the coronary vessels”.
In the case of `CN(C)CCOc1c(I)cc(C(=O)c2ccc(O)c(I)c2)cc1I` [(024), 4'-hydroxy-3'-iodo-3,5-diiodo-4-(2-N,N-dimethylaminoethoxy))benzophenon hydrochloride], in assay [1], the negative logarithm of the IC50 (pIC50) was 4.96. Besides, the T-3 receptor antagonism result in assay [2] is “T-3 receptor antagonists”.
In turn, `Oc1ccc(Cc2cc(I)c(O)c(I)c2)cc1I` [(032), 4', 4-dihydroxy-3'3,5-triiodo-diphenylmethan] showed a pIC50 in assay [1] of 6.38. Also, the T-3 receptor antagonism entry in assay [2] is “T-3 receptor antagonists”.
As for `CCN(CC)CCOc1c(I)cc(C(=O)c2c(C)oc3ccccc23)cc1I` [(003), 2-methyl-3-(3,5-diiodo-4-(2-N,N-diethylaminoethoxy)-benzoyl)-benzofuran hydrochloride], in assay [1], the pIC50 is 5.00. In addition, the T-3 receptor antagonism result in assay [2] is “T-3 receptor antagonists”.
In the case of `CCCCc1oc2ccccc2c1C(=O)c1ccc(O)c(I)c1` [(029), 2-butyl-3-(3-iodo-4-hydroxybenzoyl)benzofuran], the negative-log IC50 (pIC50) in assay [1] was 5.49. Moreover, the T-3 receptor antagonism entry in assay [2] is “T-3 receptor antagonists”.
`CCCCc1oc2ccccc2c1C(O)c1cc(I)c(OCCN(CC)CC)c(I)c1` (stereo not shown) [(001), 3,5-diiodo-4-(2-N,N-diethylaminoethoxy)phenyl-(2-butyl-benzofur-3-yl)methanol hydrochloride] gave a pIC50 in assay [1] of 5.44. Besides, the T-3 receptor antagonism entry in assay [2] is reported as “T-3 receptor antagonists”.
For `CCCCc1oc2ccccc2c1C(=O)c1cc(I)c(OCC(=O)O)c(I)c1` [(005), 2-n-butyl-3-(3,5-diiodo-4-carboxymethoxy-benzoyl)benzofuran], in that order: 5.40 and “T-3 receptor antagonists”.
On to `CCCCc1oc2ccccc2c1C(=O)c1cc(I)c(OCCN(CC)CC)c(I)c1` [Amiodarone], for which the “inhibition of T-3 induced increase in rGH mRNA levels” value in assay [5] is given as “inhibit T-3 induced increase in rat growth hormone (rGH) mRNA levels”.
